Experimental data published in EP3409266A1, “ACTIVE INGREDIENT COMBINATIONS OF GLYCERYL GLUCOSIDES AND ONE OR MORE MILD SURFACTANTS” (Beiersdorf AG, priority 2010, dated 2012).

Key:
Kalbserythrozyten [1] = assay: RBC test: haemolysis (release of haemoglobin, H50); type: cell-based, Kalb; details: 10 min
Description: (§1) Der Standard RBC-Test dient zur Abschätzung von in-vivo Augenschleimhautreizpotentialen von Tensiden und tensidhaltigen Produkten. Das Verfahren beruht auf der Tatsache, dass Tenside stark mit Zellmembranen und Proteinen interagieren. Beide Effekte werden photometrisch durch Analyse des natürlichen Blutfarbstoffs Oxyhämoglobin ([…]) bestimmt. Im Gegensatz zu anderen zellbasierten Systemen ist der RBC-Test in der Lage zwischen Schädigungen der Zellmembran (Hämolyse) und Proteindenaturierung (Denaturierungsindex) zu differenzieren.
Ein definiertes Aliquot isolierter Kalbserythrozyten wird mit einer Reihe steigender Konzentrationen des zu untersuchenden Musters (Stammlösung für Rohstoffe 0,1 Gew.-% Aktivgehalt der waschaktiven Substanz in PBS; Stammlösung für Fertigprodukte 1:100 w/v in PBS) für 10 Minuten unter Schütteln bei RT inkubiert. PBS ist ein üblicher Standard-PhosphatPuffer (pH 7,4) mit folgender Zusammensetzung:
Die Inkubationsperiode wird durch schnelle Hochgeschwindigkeitszentrifugation beendet. Nach Zentrifugation werden die gewonnenen Überstände photometrisch auf ihren Gehalt an freigesetztem Hämoglobin (HbO2) bei 530 nm analysiert. Daraus wird der relative Hämolysegrad berechnet und die Konzentrations-Response-Kurve mit dem H50-Wert [µl/ml] als Kenngröße bestimmt. Dieser gibt die Konzentration des Prüfmusters an, bei der 50% des Hämoglobins freigesetzt werden. Je höher der Wert, desto verträglicher ist das untersuchte Muster.

HbO2 = biological target: T1, HbO2 (Bos taurus, UniProt P01966+P02070); assay: RBC test: HbO2 denaturation (denaturation index DI); type: cell-based; details: raw material 0,1 Gew.-% active content in PBS, 10 min, RT; 100% standard Natriumlaurylsulfat; lower = better tolerated
T1 construct: wird im Vergleich zum nativen HbO2 gemessen; endogenous in cells; host or cells: isolated calf erythrocytes (Kalbserythrozyten)
Description: as §1
Ein definiertes Aliquot isolierter Kalbserythrozyten wird mit einer fixen Konzentration des Prüfmusters (Konzentration für Rohstoffe 0,1 Gew.-% Aktivgehalt der waschaktiven Substanz in PBS; Konzentration für Fertigprodukte 1% w/v in PBS) für 10 Minuten unter Schütteln bei RT inkubiert und dann zentrifugiert. Die Änderung der spektralen Absorption bei 575 nm und 540 nm wird im Vergleich zum nativen HbO2 gemessen. Aus dem Verhältnis der Absorptionswerte zueinander wird der Denaturierungsindex DI [%] berechnet. Als 100%-Standard dient Natriumlaurylsulfat (0,1% Aktivgehalt).
Je geringer der Wert, desto verträglicher ist das untersuchte Muster.

Kalbserythrozyten [2] = type: cell-based, Kalb
Description: Die Milde eines Tensides oder Tensidsystems lässt sich durch die Bestimmung der Quotienten aus Hämolysewert und Denaturierungsindex charakterisieren. Der Quotient L/D repräsentiert das Verhältnis von Hämolysewert (L) zu Denaturierungsindex (D) und wird durch den Standard RBC-Test bestimmt.
as §1
Der Quotient (L/D-Wert) stellt das Verhältnis der Kenngrößen von Hämolyse (H50) und Denaturierung (DI) dar und wird zur Charakterisierung und Klassifizierung der untersuchten Prüfmuster verwendet.
Tenside oder Tensidmischungen werden erfindungsgemäß als mild angesehen, wenn der L/D-Wert mindestens 1 beträgt. Zum Vergleich dazu hat das häufig in Reinigungsprodukten eingesetzte Natriumlaurylethersulfat einen L/D-Wert von ca. 0,3 und wird als reizend klassifiziert. Sofern in einer Tensidmischung Natriumlaurylethersulfat eingesetzt wird, hat die resultierende Tensidmischung erfindungsgemäß einen L/D-Wert von mindestens 1.

T1 sequence (P01966 2-142 limits assumed): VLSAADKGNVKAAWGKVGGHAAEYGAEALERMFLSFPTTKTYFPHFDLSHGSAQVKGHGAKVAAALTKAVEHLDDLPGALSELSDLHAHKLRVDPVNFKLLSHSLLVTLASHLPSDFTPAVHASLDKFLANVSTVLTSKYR
T1 sequence (P02070 whole entry): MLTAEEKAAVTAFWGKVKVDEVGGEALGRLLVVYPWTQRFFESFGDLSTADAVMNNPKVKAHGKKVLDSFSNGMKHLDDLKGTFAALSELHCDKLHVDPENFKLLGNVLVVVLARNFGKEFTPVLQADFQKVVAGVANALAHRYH

Row | Compound | H50 (Kalbserythrozyten [1]; bovine, pH 7.4) | DI (HbO2) | L/D (Kalbserythrozyten [2]) | H50 (Kalbserythrozyten [1]; raw material, stock 0,1 Gew.-% active content in PBS, RT, higher = better tolerated) [µl/ml] | Klassifizierung nach L/D-Wert (Kalbserythrozyten [2])
1 | CCCCCCCCCCCC(=O)NC(CCC(=O)O)C(=O)O (centres unmarked) [Natriumlauroylglutamat] | 312,3 µl/ml | 10,5% | 29,9 | – | –
2 | CCCCCCCCCCCC(=O)N(C)CC(=O)O [Natriumlauroylsarcosinat] | – | 58,4% | 7,84 | 458 | –
3 | Cocamidopropylbetain | 56,1 µl/ml | 2,6% | 21,65 | – | –
4 | Decylglucosid | 127,7 µl/ml | 3,9% | 33,4 | – | –
5 | Dinatrium PEG-5 Laurylcitratsulfosuccinat | 645 µl/ml | 5,5% | 117 | – | –
6 | Dinatriumcocoamphodiacetat | 36,4 µl/ml | 1,5% | 24 | – | –
7 | Dinatriumcocoylglutamat | 136,6 µl/ml | 77,9% | 1,75 | – | –
8 | Dinatriumlaurylethersulfosuccinat | 167,7 µl/ml | 40,4% | 4,15 | – | –
9 | Laurylglucosid | 84,1 µl/ml | 3,2% | 20,4 | – | –
10 | Natriumcocoamphoacetat | 26 µl/ml | 1% | 26 | – | –
11 | Natriumlaurylethersulfat [reference compound] | – | – | ca. 0,3 | – | reizend
12 | PEG-7 Glycerylcocoat | 115,2 µl/ml | 4,9% | 23,5 | – | –
